Laboratory results published in ChEMBL document CHEMBL4806960, “Inhibitors of GPR174 and Uses Thereof” (2020).
Blank lines part the entries; values can stand above or below the compound they belong to. The source made the active and inactive calls. No cut-off for these calls is given here.

Experiments:
[1] = target: T1, Probable G-protein coupled receptor 174 (Homo sapiens, UniProt Q9BXC1); test: Inhibition of human GPR174 in anti-CD3/antiCD28-stimulated human PBMC assessed as reduction in natural Treg cells (FoxP3+Helios+) at 100 uM measure after 7 days by flow cytometry; type: functional, cell-based; conditions: time 7.0 day
T1 sequence (Q9BXC1 whole entry): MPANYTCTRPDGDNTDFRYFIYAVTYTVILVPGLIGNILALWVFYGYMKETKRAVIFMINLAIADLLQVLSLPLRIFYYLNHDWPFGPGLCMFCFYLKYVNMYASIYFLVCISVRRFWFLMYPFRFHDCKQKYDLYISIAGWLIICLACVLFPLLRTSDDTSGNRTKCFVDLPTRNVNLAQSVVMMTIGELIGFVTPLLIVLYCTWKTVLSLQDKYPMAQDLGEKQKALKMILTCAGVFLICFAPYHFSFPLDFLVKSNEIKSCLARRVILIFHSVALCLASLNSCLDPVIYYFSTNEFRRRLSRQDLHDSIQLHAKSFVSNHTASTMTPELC

[2] = target: T1, Probable G-protein coupled receptor 174; test: Inhibition of human GPR174 in anti-CD3/antiCD28-stimulated CD45RA-FOXP+ human PBMC assessed as reduction in CTLA4 expression measured in non-memory Treg cells relative to control; type: functional, cell-based; conditions: dose 0.19-6 µM
[3] = target: T1, Probable G-protein coupled receptor 174; test: Inhibition of human GPR174 in anti-CD3/antiCD28-stimulated human PBMC assessed as increase in TNFalpha production at 10 uM measured after 2 days relative to control; type: functional, tissue-based; conditions: time 2.0 day
[4] = target: T1, Probable G-protein coupled receptor 174; test: Inhibition of human GPR174 in anti-CD3/antiCD28-stimulated human PBMC assessed as increase in IL-2 production measured after 2 days; type: functional, tissue-based; conditions: dose 3-60 µM, time 2.0 day
[5] = target: T1, Probable G-protein coupled receptor 174; test: Inhibition of human GPR174 in anti-CD3/antiCD28-stimulated human PBMC assessed as CD4+ cell population at 10 uM measured after 2 days relative to control; type: functional, tissue-based; design: scale not given: the % may be the effect or the level left; conditions: time 2.0 day
[6] = target: T1, Probable G-protein coupled receptor 174; test: Inhibition of human GPR174 in anti-CD3/antiCD28-stimulated human PBMC assessed as non-T cell cell population at 10 uM measured after 2 days relative to control; type: functional, tissue-based; design: scale not given: the % may be the effect or the level left; conditions: time 2.0 day
[7] = target: T1, Probable G-protein coupled receptor 174; test: Inhibition of GPR174 in anti-CD3/antiCD28-stimulated human PBMC assessed as increase in IFNgamma level measured after 2 days by ELISA; type: functional, tissue-based; conditions: time 2.0 day
[8] = target: T1, Probable G-protein coupled receptor 174; test: Inhibition of human GPR174 in anti-CD3/antiCD28-stimulated human PBMC assessed as increase in IL-10 production at 10 uM measured after 2 days relative to control; type: functional, tissue-based; conditions: time 2.0 day
[9] = target: T1, Probable G-protein coupled receptor 174; test: Inhibition of GPR174 (unknown origin) in cells assessed as incorporation of nuclear localization sequence into transmembrane protein by cellular redistribution assay; type: functional
[10] = target: T1, Probable G-protein coupled receptor 174; test: Inhibition of human GPR174 in anti-CD3/antiCD28-stimulated human PBMC assessed as reduction in natural Treg cells (FoxP3+Helios+) measure after 7 days by ELISA; type: functional, cell-based; conditions: dose 3-30 µM, time 7.0 day
[11] = target: T1, Probable G-protein coupled receptor 174; test: Inhibition of human GPR174 in anti-CD3/antiCD28-stimulated human PBMC assessed as increase in IL-6 production at 10 uM measured after 2 days relative to control; type: functional, tissue-based; conditions: time 2.0 day
[12] = target: T1, Probable G-protein coupled receptor 174; test: Inhibition of human GPR174 in anti-CD3/antiCD28-stimulated human PBMC assessed as reduction in AREG expression in CD4+ T cell relative to control; type: functional, tissue-based
[13] = target: T1, Probable G-protein coupled receptor 174; test: Inhibition of human GPR174 in anti-CD3/antiCD28-stimulated human regulatory T cells assessed as reduction in CTLA4 expression relative to control; type: functional, tissue-based; conditions: T cell, dose 0.19-6 µM
Splenocyte = test: Effect on IL-2 production in mouse GPR174 knock out splenocytes at 10 uM measured after 2 days; type: functional, cell-based; conditions: time 2.0 day
[14] = target: T1, Probable G-protein coupled receptor 174; test: Inhibition of human GPR174 in anti-CD3/antiCD28-stimulated CD45RA-FOXP+ human PBMC assessed as reduction in CTLA4 expression measured in memory Treg cells relative to control; type: functional, cell-based; conditions: dose 0.19-6 µM
[15] = target: T1, Probable G-protein coupled receptor 174; test: Inhibition of human GPR174 in anti-CD3/antiCD28-stimulated human PBMC assessed as increase in IFNgamma production at 10 uM measured after 2 days relative to control; type: functional, tissue-based; conditions: time 2.0 day
[16] = target: T1, Probable G-protein coupled receptor 174; test: Inhibition of human GPR174 in anti-CD3/antiCD28-stimulated human PBMC assessed as increase in IL-2 level measured after 2 days by ELISA; type: functional, tissue-based; conditions: time 2.0 day
[17] = target: T1, Probable G-protein coupled receptor 174; test: Inhibition of human GPR174 in anti-CD3/antiCD28-stimulated human PBMC assessed as reduction in TGIT expression in CD8+ T cell relative to control; type: functional, tissue-based
[18] = target: T1, Probable G-protein coupled receptor 174; test: Inhibition of human GPR174 in anti-CD3/antiCD28-stimulated human PBMC assessed as reduction in CTLA4 expression relative to control; type: functional, tissue-based; conditions: dose 0.19-6 µM
[19] = target: T1, Probable G-protein coupled receptor 174; test: Inhibition of human GPR174 in anti-CD3/antiCD28-stimulated human PBMC assessed as increase in natural Treg cells […] at 100 uM measure after 7 days by flow cytometry; type: functional, cell-based; conditions: time 7.0 day
[20] = target: Probable G-protein coupled receptor 174 (Mus musculus) (UniProt Q3U507); test: Inhibition of mouse GPR174 in anti-CD3/antiCD28-stimulated mouse splenocytes assessed as increase in IL-2 production at 10 uM measured after 2 days; type: functional, tissue-based; conditions: Splenocyte, time 2.0 day
Probable G-protein coupled receptor 174 (Mus musculus), sequence (Q3U507 whole entry): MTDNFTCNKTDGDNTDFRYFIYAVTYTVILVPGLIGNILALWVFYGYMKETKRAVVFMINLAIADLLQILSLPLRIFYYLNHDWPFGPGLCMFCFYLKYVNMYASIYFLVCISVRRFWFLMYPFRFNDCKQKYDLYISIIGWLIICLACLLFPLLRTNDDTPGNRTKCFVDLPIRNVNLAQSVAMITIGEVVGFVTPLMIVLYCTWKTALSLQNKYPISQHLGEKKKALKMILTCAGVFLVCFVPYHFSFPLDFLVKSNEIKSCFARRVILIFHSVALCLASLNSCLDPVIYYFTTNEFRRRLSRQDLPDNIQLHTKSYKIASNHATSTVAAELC

[21] = target: T1, Probable G-protein coupled receptor 174; test: Inhibition of human GPR174 in anti-CD3/antiCD28-stimulated human PBMC assessed as reduction in PD-L1 expression in CD4+ T cell relative to control; type: functional, tissue-based
[22] = target: T1, Probable G-protein coupled receptor 174; test: Inhibition of human GPR174 in anti-CD3/antiCD28-stimulated human PBMC assessed as CD8+ cell population at 10 uM measured after 2 days relative to control; type: functional, tissue-based; design: scale not given: the % may be the effect or the level left; conditions: time 2.0 day
[23] = target: T1, Probable G-protein coupled receptor 174; test: Allosteric modulator activity at human GPR174 expressed in cells assessed as inhibition of CRE-luc reporter activity by measuring decrease in Gs-protein signalling activity relative to control; type: functional, cell-based; conditions: filed as […] allosteric modulator
[24] = target: T1, Probable G-protein coupled receptor 174; test: Antagonist activity at human GPR174 expressed in cells assessed as inhibition of CRE-luc reporter activity by measuring decrease in Gs-protein signalling activity relative to control; type: functional, cell-based; conditions: filed as antagonist
[25] = target: T1, Probable G-protein coupled receptor 174; test: Inverse agonist activity at human GPR174 expressed in cells assessed as inhibition of CRE-luc reporter activity by measuring decrease in Gs-protein signalling activity relative to control; type: functional, cell-based

Compound: CC1CCN(c2cc(N3CCN(S(=O)(=O)c4ccccc4)CC3)c([N+](=O)[O-])cc2F)CC1
Activity [1]: Active | Activity [2]: Active | Activity [3]: Active | Activity [4]: Dose-Dependent Effect | Activity [5]: 46.2% | Activity [6]: 33.9% | Activity [7]: Active | Activity [8]: Active | EC50 [9]: 600 nM | Activity [10]: Dose-Dependent Effect | Activity [11]: Active | Activity [12]: Dose-Dependent Effect | Activity [13]: Dose-Dependent Effect | Activity (Splenocyte): inactive | Activity [14]: Active | Activity [15]: Active | Activity [16]: Dose-Dependent Effect | Activity [17]: Dose-Dependent Effect | Activity [18]: Dose-Dependent Effect | Activity [19]: Active | Activity [20]: Active | Activity [21]: Dose-Dependent Effect | Activity [22]: 17.1%

Activity [23]: Active | Activity [24]: Active
Compound: Cc1cc(C(=O)N/N=C/c2cc(Br)ccc2O)c(C)o1

Activity [23]: Active | Activity [24]: Active
Compound: O=C(N/N=C/c1cc(Cl)ccc1O)c1ccncc1

Activity [23]: Active | Activity [24]: Active
Compound: Cc1ccc(-c2nnc(Nc3ccccc3)c3ccccc23)cc1S(N)(=O)=O

Ratio [25]: 3.7
Compound: C=C(C)COc1ccc(NC(=O)Nc2ccccc2)cc1

Activity [16]: Dose-Dependent Effect
Compound: O=C(c1ccccc1)N1CCN(c2cc(N3CCCCC3)c(F)cc2[N+](=O)[O-])CC1

Activity [23]: Active | Activity [24]: Active
Compound: CC(=O)c1ccc(N2CCN(C(=O)c3ccc(F)cc3)CC2)c(F)c1

Activity [23]: Active | EC50 [9]: 500 nM | Activity [24]: Active
Compound: Cc1cc(Cc2ccc(NC(=O)c3cccs3)c(C)c2)ccc1NC(=O)c1cccs1

Activity [23]: Active | Activity [24]: Active
Compound: Cc1ccccc1Nc1nnc(-c2ccc(C)c(S(N)(=O)=O)c2)c2ccccc12

Ratio [25]: 3
Compound: CCOc1ccc(C2C3=C(CCCC3=O)NC3=C2C(=O)c2ccccc23)cn1 (stereo not given)

Activity [24]: Active
Compound: CCCC(=O)c1ccc(N2CCN(S(=O)(=O)c3ccc(C)cc3)CC2)c(F)c1
